Common to all, as to assay type: cell-based
One assay has as its target T1, human GPR1 (Homo sapiens, UniProt P46091).
T1 construct: host or cells: CHO-K1
T1 sequence (P46091 1-355): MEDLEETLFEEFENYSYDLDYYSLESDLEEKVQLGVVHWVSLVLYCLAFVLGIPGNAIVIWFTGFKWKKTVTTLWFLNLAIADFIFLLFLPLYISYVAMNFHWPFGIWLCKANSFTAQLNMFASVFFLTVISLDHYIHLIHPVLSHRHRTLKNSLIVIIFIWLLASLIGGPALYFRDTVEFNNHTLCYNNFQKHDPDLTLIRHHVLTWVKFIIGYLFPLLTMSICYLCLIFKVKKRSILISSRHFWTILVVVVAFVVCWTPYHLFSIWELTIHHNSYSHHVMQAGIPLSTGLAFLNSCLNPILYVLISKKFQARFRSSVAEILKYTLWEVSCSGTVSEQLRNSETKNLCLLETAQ
As to the kind of experiment: β‐Arrestin recruitment at GPR1. Here is the method:
(§1) β‐Arrestin recruitment (CMKLR1 and GPR1) and cAMP assays (CMKLR1; DiscoverX, Fremont, CA) were carried out with CHO‐K1 cells expressing either human CMKLR1 or GPR1, according to the manufacturer's instructions. […] Data were subsequently normalized to the maximum response to C13 used as the reference agonists in each assay.
Background: Activated receptors often draw arrestin, which recruitment assays turn into a signal.

Assay [1] has as its target T2, human CMKLR1 (Homo sapiens, UniProt Q99788).
T2 construct: host or cells: CHO-K1
T2 sequence (Q99788 1-373): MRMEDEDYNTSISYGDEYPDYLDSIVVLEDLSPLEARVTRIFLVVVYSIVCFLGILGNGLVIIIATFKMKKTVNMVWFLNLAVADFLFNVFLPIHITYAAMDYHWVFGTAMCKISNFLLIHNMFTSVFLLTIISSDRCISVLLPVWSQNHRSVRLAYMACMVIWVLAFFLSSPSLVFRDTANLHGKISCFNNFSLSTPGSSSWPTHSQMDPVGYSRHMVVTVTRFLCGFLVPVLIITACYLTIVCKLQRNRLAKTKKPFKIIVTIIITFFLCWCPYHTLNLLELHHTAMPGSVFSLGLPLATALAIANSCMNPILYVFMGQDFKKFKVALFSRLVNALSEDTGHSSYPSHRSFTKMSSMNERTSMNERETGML
Kind of assay: β‐Arrestin recruitment at CMKLR1. Here is the method:
as §1

Assay [2] addresses T2, human CMKLR1. Kind of assay: cAMP inhibition at CMKLR1. The conditions noted are these: inhibition of forskolin‐evoked cAMP accumulation, CHO‐K1 cells, n: Chemerin 3, C9 4, C13 3, mean±SEM. Here is the method: as §1
(Changes in cAMP serve as a functional read-out for many G protein-coupled receptors.)

Ends that are not written are not given here.

Results on two substances are retold here after article PMC5121526, “Chemerin Elicits Potent Constrictor Actions via Chemokine‐Like Receptor 1 (CMKLR1), not G‐Protein‐Coupled Receptor 1 (GPR1), in Human and Rat Vasculature” (Journal of the American Heart Association: Cardiovascular …, 2016).

In general, Emax refers to the size of the effect at its maximum, as opposed to the concentration needed.

With “Chemerin: Human recombinant chemerin(21–157) purchased from R&D Systems”, the pD2 in the assay with human GPR1 (β‐arrestin recruitment, CHO‐K1 cells, GPR1, n: Chemerin 3, C9 7, C13 9, mean±SEM) stood at 9.05±0.09; with human CMKLR1 [1] (β‐arrestin recruitment, CHO‐K1 cells, CMKLR1, n: Chemerin 3, C9 3, C13 6, mean±SEM), 9.37±0.05; with human CMKLR1 [2], 8.45±0.10.

For the substance PHSFYFPGQFAFS [C13], the values for the EC50 at human GPR1, on human CMKLR1 [1] and at human CMKLR1 [2] (read-out: pD2 (converted)) were 2.24 nM, 70.8 nM and 0.759 nM, respectively. Moreover, the figures for the Emax on human GPR1 and on human CMKLR1 [1] were 97 ± 3% and 94 ± 2%, respectively.
